Laboratory results taken from ChEMBL document CHEMBL6127046, “Design, synthesis, and preclinical evaluation of 11C/18F-labeled inhibitors for RIPK1 PET imaging” (Eur J Med Chem, 2024).
One block for each molecule: values may come before it.

What was measured:
HT-29 = assay: Anti-necroptosis activity against TNFalpha/SM-164/Z-VAD-FMK-induced human HT-29 cell necroptosis model assessed as cell viability incubated for 24 hrs by CCK8 assay; format: functional, cell-based; conditions: HT-29, 24 h
U-937 = assay: Anti-necroptosis activity against TNFalpha/SM-164/Z-VAD-FMK-induced human U-937 cell necroptosis model assessed as cell viability incubated for 24 hrs by CCK8 assay; format: functional, cell-based; conditions: U-937, 24 h
L929 = assay: Anti-necroptosis activity against TNFalpha/Z-VAD-FMK-induced mouse L929 cell necroptosis model assessed as cell viability incubated for 24 hrs by CCK8 assay; format: functional, cell-based; conditions: L929, 24 h
[1] = Lipophilicity, logD of compound at pH 7.4 by shake-flask method; format: physicochemical; conditions: buffer
[2] = molecular target: T1, Receptor-interacting serine/threonine-protein kinase 1 (Homo sapiens, UniProt Q13546); assay: Binding affinity to RIPK1 (unknown origin) by KINOMEscan method
T1 sequence (Q13546 whole entry): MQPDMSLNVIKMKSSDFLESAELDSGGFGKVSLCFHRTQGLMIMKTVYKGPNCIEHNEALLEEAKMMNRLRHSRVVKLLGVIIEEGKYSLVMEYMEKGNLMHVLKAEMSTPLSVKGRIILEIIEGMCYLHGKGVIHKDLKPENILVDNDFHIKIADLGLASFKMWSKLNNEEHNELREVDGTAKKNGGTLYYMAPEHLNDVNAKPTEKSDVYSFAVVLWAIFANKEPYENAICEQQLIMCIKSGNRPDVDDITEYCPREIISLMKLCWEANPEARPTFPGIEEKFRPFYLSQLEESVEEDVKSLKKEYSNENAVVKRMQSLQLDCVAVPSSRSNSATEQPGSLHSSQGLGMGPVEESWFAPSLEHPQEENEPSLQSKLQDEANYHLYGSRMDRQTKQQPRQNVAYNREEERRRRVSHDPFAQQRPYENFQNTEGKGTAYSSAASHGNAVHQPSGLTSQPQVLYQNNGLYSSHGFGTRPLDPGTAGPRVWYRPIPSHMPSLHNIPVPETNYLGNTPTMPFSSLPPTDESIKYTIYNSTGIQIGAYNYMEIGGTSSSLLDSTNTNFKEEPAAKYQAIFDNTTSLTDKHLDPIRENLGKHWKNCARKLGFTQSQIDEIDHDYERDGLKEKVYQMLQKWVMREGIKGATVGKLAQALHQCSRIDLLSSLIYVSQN

[3] = Drug uptake in mouse hippocampus measured upto 60 mins by PET imaging method; format: ADME; conditions: in vivo, 1 h
[4] = Drug metabolism in mouse brain measured after 10 to 12 mins by HPLC analysis; format: ADME, tissue-based; conditions: time 10-12 min
[5] = Metabolic stability in mouse brain assessed as remaining compound measured at 30 mins by HPLC analysis; format: ADME, tissue-based; conditions: read-out: Stability
[6] = Drug uptake in mouse brain in presence of 1-(7-fluoro-2,3-dihydrobenzo[f][1,4]oxazepin-4(5H)-yl)-2,2-dimethylbutan-1-one by autoradiography; format: ADME, tissue-based; conditions: in vivo
[7] = Metabolic stability in mouse brain assessed as remaining compound measured at 5 mins by HPLC analysis; format: ADME, tissue-based; conditions: read-out: Stability
[8] = Drug uptake in mouse brain in presence of Nec-1s by autoradiography; format: ADME, tissue-based; conditions: in vivo
[9] = Drug uptake in mouse thalamus measured upto 60 mins by PET imaging method; format: ADME; conditions: in vivo, 1 h
[10] = Metabolic stability in mouse plasma assessed as remaining compound measured at 10 mins by HPLC analysis; format: ADME, cell-free; conditions: read-out: Stability
[11] = Drug metabolism in mouse blood measured after 10 to 12 mins by HPLC analysis; format: ADME, tissue-based; conditions: time 10-12 min
[12] = Metabolic stability in mouse plasma assessed as remaining compound measured at 30 mins by HPLC analysis; format: ADME, cell-free; conditions: read-out: Stability
[13] = Drug uptake in mouse brain assessed as maximum standardized uptake value measured upto 60 mins by PET imaging method; format: ADME, tissue-based; conditions: in vivo, 1 h
[14] = Drug metabolism in mouse plasma assessed as retention time; format: ADME, cell-free
[15] = Drug uptake in mouse striatum measured upto 60 mins by PET imaging method; format: ADME; conditions: in vivo, 1 h
[16] = Drug metabolism in mouse plasma measured at 11 mins; format: ADME, cell-free
[17] = Metabolic stability in mouse plasma assessed as remaining compound measured at 5 mins by HPLC analysis; format: ADME, cell-free; conditions: read-out: Stability

SMILES: CC(C)C(=O)Nc1nc2cc(-c3ccc4c(c3)c(C(=O)NC(C)c3ccccc3)cn4C)ccn2n1 (stereo unspecified)
EC50 (HT-29): 12.5 nM | EC50 (U-937): 12.4 nM | EC50 (L929): 0.004 µM

SMILES: O=C(C1CCN(c2ncc(F)cn2)CC1)N1CCOc2ccccc2C1
EC50 (L929): 0.83 µM

logD [1]: 3.1 | Kd [2]: 18 nM
SMILES: CCC(C)(C)C(=O)N1CCOc2ccc(F)cc2C1
EC50 (HT-29): 8.04 nM | EC50 (U-937): 24.9 nM | EC50 (L929): 0.02 µM

SMILES: O=C(C1CCN(c2ncc(Br)cn2)CC1)N1CCOc2ccc(Br)cc2C1
EC50 (L929): > 10 µM

SMILES: O=C(C1CCN(c2ncc(O)cn2)CC1)N1CCOc2ccc(F)cc2C1
EC50 (L929): > 10 µM

SMILES: COc1nc(N2CCC(C(=O)N3CCOc4ccc(F)cc4C3)CC2)ncc1F
EC50 (L929): 6.57 µM

SMILES: COc1ccc2c(c1)CN(C(=O)C1CCN(c3ncc(F)cn3)CC1)CCO2
EC50 (L929): 2.58 µM

Drug uptake [3]: Active | Drug metabolism [4]: Metabolite_Detected | remaining at 0.5 h [5]: 44% | Drug uptake [6]: Not Active | remaining at 5 min [7]: 86% | Drug uptake [8]: Not Active | Drug uptake [9]: Active | remaining at 10 min [10]: 51% | Drug metabolism [11]: Metabolite_Detected | remaining at 0.5 h [12]: 25% | SUVmax [13]: 1.5 | Retention_time [14]: 2.8 min | Drug uptake [15]: Active | Drug metabolism [16]: Metabolite_Detected | remaining at 5 min [17]: 72%
SMILES: CCC(C)(C)C(=O)N1CCOc2ccc([18F])cc2C1

logD [1]: 2.2
SMILES: O=C(C1CCN(c2ncc(F)cn2)CC1)N1CCOc2ccc(F)cc2C1
EC50 (HT-29): 5120 nM | EC50 (U-937): 2760 nM | EC50 (L929): 0.77 µM

SMILES: CCC(C)(C)C(=O)N1CCOc2ccc(O)cc2C1
EC50 (L929): > 10 µM

SMILES: CCC(C)(C)C(=O)N1CCOc2ccc(OC)cc2C1
EC50 (L929): 8.96 µM

SMILES: O=C(C1CCN(c2ncc(F)cn2)CC1)N1CCOc2ccc(Br)cc2C1
EC50 (L929): 6.93 µM

SMILES: O=C(C1CCN(c2ncc(F)cn2)CC1)N1CCOc2ccc(O)cc2C1
EC50 (L929): > 10 µM

SUVmax [13]: 1.5
SMILES: O=C(C1CCN(c2ncc([18F])cn2)CC1)N1CCOc2ccc(F)cc2C1

SMILES: O=C(C1CCN(c2ncc(Br)cn2)CC1)N1CCOc2ccccc2C1
EC50 (L929): > 10 µM

SMILES: COc1nc(N2CCC(C(=O)N3CCOc4ccc(Br)cc4C3)CC2)ncc1F
EC50 (L929): 5.21 µM

SMILES: COc1cnc(N2CCC(C(=O)N3CCOc4ccccc4C3)CC2)nc1
EC50 (L929): 4.23 µM

SMILES: O=C(C1CCN(c2ncc(Br)cn2)CC1)N1CCOc2ccc(F)cc2C1
EC50 (L929): 2.32 µM

SUVmax [13]: 0.8
SMILES: [11CH3]Oc1cnc(N2CCC(C(=O)N3CCOc4ccc(F)cc4C3)CC2)nc1

logD [1]: 1.8
SMILES: COc1cnc(N2CCC(C(=O)N3CCOc4ccc(F)cc4C3)CC2)nc1
EC50 (HT-29): 200 nM | EC50 (U-937): 2200 nM | EC50 (L929): 0.38 µM
